According to patent US8901118B2, “Compounds and methods for kinase modulation, and indications therefor” (Plexxikon Inc., priority 2010, dated 2014):

How the values were obtained:
[1] = biological target: T1, BCR-NTRK3 BaF3 cells (Homo sapiens, UniProt Q16288); test: BaF3 BCR-NTRK3 cell proliferation assay (ATPlite); type: cell-based; details: read-out: Inhibition of Cell Proliferation IC50, BCR/BaF3 TrkC
T1 construct: fused on or other part: P11274 (Breakpoint cluster region protein)
How it was run: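 BaF3 lines were seeded at 10,000 cells/well in growth medium with 1 mg/mL G418 but no IL-3, and MV-4-11 cells at 25,000 cells/well; plates were left overnight at 37 °C. Compounds were added as an 8-point 1:3 series with a top concentration of 10 μM and incubated 3 days. IC50 was taken from ATPlite luminescence.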

[2] = biological target: TrkA kinase (Homo sapiens, UniProt P04629); test: TrkA kinase biochemical activity assay (AlphaScreen); details: 100 μM ATP; read-out: Biochemical Inhibition IC50 TrkA
Sequence of TrkA kinase (P04629 33-796): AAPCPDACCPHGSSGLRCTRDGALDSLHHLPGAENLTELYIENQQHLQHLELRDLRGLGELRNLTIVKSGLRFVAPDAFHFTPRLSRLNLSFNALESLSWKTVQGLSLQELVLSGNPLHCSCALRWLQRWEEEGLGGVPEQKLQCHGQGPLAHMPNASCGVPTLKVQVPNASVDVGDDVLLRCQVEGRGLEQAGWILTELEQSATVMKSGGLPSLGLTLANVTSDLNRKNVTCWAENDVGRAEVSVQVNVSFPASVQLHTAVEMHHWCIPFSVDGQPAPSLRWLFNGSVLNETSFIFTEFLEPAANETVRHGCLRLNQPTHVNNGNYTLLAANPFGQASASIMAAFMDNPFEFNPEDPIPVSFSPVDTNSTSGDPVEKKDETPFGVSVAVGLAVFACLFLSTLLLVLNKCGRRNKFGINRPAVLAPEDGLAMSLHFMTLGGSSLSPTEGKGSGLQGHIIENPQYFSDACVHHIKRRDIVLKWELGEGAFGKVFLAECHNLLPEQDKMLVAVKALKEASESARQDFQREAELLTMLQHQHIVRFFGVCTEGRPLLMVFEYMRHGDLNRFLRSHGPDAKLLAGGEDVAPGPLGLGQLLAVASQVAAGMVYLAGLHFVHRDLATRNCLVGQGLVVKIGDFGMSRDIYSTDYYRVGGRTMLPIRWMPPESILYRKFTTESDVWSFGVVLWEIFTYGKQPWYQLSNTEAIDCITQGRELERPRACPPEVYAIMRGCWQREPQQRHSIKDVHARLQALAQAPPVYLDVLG
How it was run: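 Recombinant TrkA with 30 nM biotin-(E4Y)10 and 100 μM ATP in 25 mM Hepes pH 7.5, 10 mM MnCl2, 5% DMSO, 40 min at room temperature. Phosphorylation read by AlphaScreen (streptavidin donor, PY20 acceptor beads); IC50 from signal vs compound concentration. TrkC run similarly.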

T1 sequence (Q16288 whole entry, the tested form may be a part): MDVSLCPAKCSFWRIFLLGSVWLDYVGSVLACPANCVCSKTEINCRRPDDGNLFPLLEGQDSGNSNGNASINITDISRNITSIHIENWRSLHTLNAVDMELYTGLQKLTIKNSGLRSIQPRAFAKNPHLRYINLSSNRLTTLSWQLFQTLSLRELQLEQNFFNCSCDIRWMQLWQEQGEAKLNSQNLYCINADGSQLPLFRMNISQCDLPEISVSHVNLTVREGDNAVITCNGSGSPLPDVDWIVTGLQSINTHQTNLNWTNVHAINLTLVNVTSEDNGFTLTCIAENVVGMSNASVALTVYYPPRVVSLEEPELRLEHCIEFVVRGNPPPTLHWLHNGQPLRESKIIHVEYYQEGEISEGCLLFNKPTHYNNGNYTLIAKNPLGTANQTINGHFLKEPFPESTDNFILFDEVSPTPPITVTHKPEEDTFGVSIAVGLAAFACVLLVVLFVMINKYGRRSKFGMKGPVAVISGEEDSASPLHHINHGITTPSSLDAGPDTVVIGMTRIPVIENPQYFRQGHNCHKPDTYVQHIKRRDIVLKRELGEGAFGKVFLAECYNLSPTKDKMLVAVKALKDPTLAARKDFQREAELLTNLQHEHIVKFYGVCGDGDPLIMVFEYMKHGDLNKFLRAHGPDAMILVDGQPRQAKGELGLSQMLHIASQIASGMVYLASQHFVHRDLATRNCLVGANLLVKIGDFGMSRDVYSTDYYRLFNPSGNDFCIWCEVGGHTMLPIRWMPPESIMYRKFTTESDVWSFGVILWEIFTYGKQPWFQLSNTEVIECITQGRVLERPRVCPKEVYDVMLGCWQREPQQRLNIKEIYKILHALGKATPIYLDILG

| Compound | IC50 [1] [nM] | IC50 [2] [nM] |
| --- | --- | --- |
| Clc1cnc2[nH]cc(Cc3cnc(NC4CCCCC4)nc3)c2c1 [Compound P-3001, [5-(5-chloro-1H-pyrrolo[2,3-b]pyridin-3-ylmethyl)-pyrimidin-2-yl]-cyclohexyl-amine] | > 10000 | – |
| FC1(F)CCC(Nc2ncc(Cc3c[nH]c4ncc(Cl)cc34)cn2)CC1 [Compound P-3004] | < 10000 | – |
| Clc1cnc2[nH]cc(Cc3cnc(NC4CC4)nc3)c2c1 [Compound P-3005, [5-(5-Chloro-1H-pyrrolo[2,3-b]pyridin-3-ylmethyl)-pyrimidin-2-yl]-cyclopropyl-amine] | > 10000 | – |
| Clc1cnc2[nH]cc(Cc3cnc(NC4CCCCCC4)nc3)c2c1 [Compound P-3006, [5-(5-Chloro-1H-pyrrolo[2,3-b]pyridin-3-ylmethyl)-pyrimidin-2-yl]-cycloheptyl-amine] | > 10000 | – |
| COc1ccccc1Nc1ncc(Cc2c[nH]c3ncc(Cl)cc23)cn1 [Compound P-3016, [5-(5-Chloro-1H-pyrrolo[2,3-b]pyridin-3-ylmethyl)-pyrimidin-2-yl]-(2-methoxy-phenyl)-amine] | > 10000 | > 1000 |
| Fc1cccc(Nc2ncc(Cc3c[nH]c4ncc(Cl)cc34)cn2)c1 [Compound P-3017, [5-(5-Chloro-1H-pyrrolo[2,3-b]pyridin-3-ylmethyl)-pyrimidin-2-yl]-(3-fluoro-phenyl)-amine] | > 10000 | > 1000 |
| Cc1cnc2[nH]cc(Cc3cnc(Nc4ccc(C(F)(F)F)nc4)nc3)c2c1 [Compound P-3018, [5-(5-Methyl-1H-pyrrolo[2,3-b]pyridin-3-ylmethyl)-pyrimidin-2-yl]-(6-trifluoromethyl-pyridin-3-yl)-amine] | < 100 | < 1000 |
| COc1ccc(Nc2ccc(Cc3c[nH]c4ncc(C)cc34)c(F)n2)cn1 [Compound P-3019, [6-fluoro-5-(5-methyl-1H-pyrrolo[2,3-b]pyridin-3-ylmethyl)-pyridin-2-yl]-(6-methoxy-pyridin-3-yl)-amine] | < 100 | < 100 |
| COc1ccc(Nc2ncc(Cc3c[nH]c4ncc(C)cc34)cn2)cn1 [Compound P-3020, (6-Methoxy-pyridin-3-yl)-[5-(5-methyl-1H-pyrrolo[2,3-b]pyridin-3-ylmethyl)-pyrimidin-2-yl]-amine] | < 100 | < 100 |
| COc1ccc(Nc2ncc(Cc3c[nH]c4ncc(C)cc34)cn2)cc1 [Compound P-3021, (4-Methoxy-phenyl)-[5-(5-methyl-1H-pyrrolo[2,3-b]pyridin-3-ylmethyl)-pyrimidin-2-yl]-amine] | < 100 | < 100 |
| COc1cc(Nc2ncc(Cc3c[nH]c4ncc(C)cc34)cn2)ccc1F [Compound P-3022, (4-Fluoro-3-methoxy-phenyl)-[5-(5-methyl-1H-pyrrolo[2,3-b]pyridin-3-ylmethyl)-pyrimidin-2-yl]-amine] | < 1000 | < 1000 |
| COc1ccc(Nc2ncc(Cc3c[nH]c4ncc(C)cc34)cn2)cc1F [Compound P-3023, (3-Fluoro-4-methoxy-phenyl)-[5-(5-methyl-1H-pyrrolo[2,3-b]pyridin-3-ylmethyl)-pyrimidin-2-yl]-amine] | < 1000 | – |
| CCCOc1ccc(Nc2ncc(Cc3c[nH]c4ncc(C)cc34)cn2)cc1 [Compound P-3024, [5-(5-Methyl-1H-pyrrolo[2,3-b]pyridin-3-ylmethyl)-pyrimidin-2-yl]-(4-propoxy-phenyl)-amine] | < 100 | < 1000 |
| CCc1ccc(Nc2ncc(Cc3c[nH]c4ncc(C)cc34)cn2)cc1 [Compound P-3025, (4-Ethyl-phenyl)-[5-(5-methyl-1H-pyrrolo[2,3-b]pyridin-3-ylmethyl)-pyrimidin-2-yl]-amine] | < 10 | < 100 |
| CCOc1ccc(Nc2ncc(Cc3c[nH]c4ncc(C)cc34)cn2)cc1 [Compound P-3026, (4-Ethoxy-phenyl)-[5-(5-methyl-1H-pyrrolo[2,3-b]pyridin-3-ylmethyl)-pyrimidin-2-yl]-amine] | < 100 | > 1000 |
| CCOc1ccc(Nc2ncc(Cc3c[nH]c4ncc(C)cc34)cn2)cn1 [Compound P-3027, (6-Ethoxy-pyridin-3-yl)-[5-(5-methyl-1H-pyrrolo[2,3-b]pyridin-3-ylmethyl)-pyrimidin-2-yl]-amine] | < 100 | < 1000 |
| Cc1cnc2[nH]cc(Cc3cnc(Nc4cc(-c5ccc(F)cc5)n[nH]4)nc3)c2c1 [Compound P-3028, [5-(4-Fluoro-phenyl)-2H-pyrazol-3-yl]-[5-(5-methyl-1H-pyrrolo[2,3-b]pyridin-3-ylmethyl)-pyrimidin-2-yl]-amine] | < 100 | < 100 |

| Compound | IC50 [1] [nM] | IC50 [2] [nM] |
| --- | --- | --- |
| Cc1cnc2[nH]cc(Cc3cnc(Nc4cc(C(C)(C)C)n[nH]4)nc3)c2c1 [Compound P-3029, (5-tert-Butyl-2H-pyrazol-3-yl)-[5-(5-methyl-1H-pyrrolo[2,3-b]pyridin-3-ylmethyl)-pyrimidin-2-yl]-amine] | < 1000 | < 1000 |
| Cc1cnc2[nH]cc(Cc3cnc(Nc4ccc(C(C)(C)C)cc4)nc3)c2c1 [Compound P-3030, (4-tert-Butyl-phenyl)-[5-(5-methyl-1H-pyrrolo[2,3-b]pyridin-3-ylmethyl)-pyrimidin-2-yl]-amine amine] | < 10 | < 10 |
| Cc1cnc2[nH]cc(Cc3cnc(Nc4ccc(C(O)(C(F)(F)F)C(F)(F)F)cc4)nc3)c2c1 [Compound P-3031, 1,1,1,3,3,3-Hexafluoro-2-{4-[5-(5-methyl-1H-pyrrolo[2,3-b]pyridin-3-ylmethyl)-pyrimidin-2-ylamino]-phenyl}-propan-2-ol] | < 10 | < 100 |
| Cc1cnc2[nH]cc(Cc3cnc(Nc4cc(C5CC5)n[nH]4)nc3)c2c1 [Compound P-3032, (5-Cyclopropyl-2H-pyrazol-3-yl)-[5-(5-methyl-1H-pyrrolo[2,3-b]pyridin-3-ylmethyl)-pyrimidin-2-yl]-amine] | < 1000 | > 1000 |
| CSc1ccc(Nc2ncc(Cc3c[nH]c4ncc(C)cc34)cn2)cc1 [Compound P-3033, [5-(5-Methyl-1H-pyrrolo[2,3-b]pyridin-3-ylmethyl)-pyrimidin-2-yl]-(4-methylsulfanyl-phenyl)-amine] | < 100 | < 10 |
| Cc1cnc2[nH]cc(Cc3cnc(Nc4ccc(S(C)(=O)=O)cc4)nc3)c2c1 [Compound P-3034, (4-Methanesulfonyl-phenyl)-[5-(5-methyl-1H-pyrrolo[2,3-b]pyridin-3-ylmethyl)-pyrimidin-2-yl]-amine] | < 100 | < 1000 |
| CCn1ccc(Nc2ncc(Cc3c[nH]c4ncc(C)cc34)cn2)n1 [Compound P-3035, (1-Ethyl-1H-pyrazol-3-yl)-[5-(5-methyl-1H-pyrrolo[2,3-b]pyridin-3-ylmethyl)-pyrimidin-2-yl]-amine] | < 100 | < 1000 |
| CCn1cc(Nc2ncc(Cc3c[nH]c4ncc(C)cc34)cn2)cn1 [Compound P-3036, (1-Ethyl-1H-pyrazol-4-yl)-[5-(5-methyl-1H-pyrrolo[2,3-b]pyridin-3-ylmethyl)-pyrimidin-2-yl]-amine] | < 1000 | < 1000 |
| Cc1cnc2[nH]cc(Cc3cnc(Nc4cc(C(F)(F)F)n[nH]4)nc3)c2c1 [Compound P-3037, [5-(5-Methyl-1H-pyrrolo[2,3-b]pyridin-3-ylmethyl)-pyrimidin-2-yl]-(5-trifluoromethyl-2H-pyrazol-3-yl)-amine] | > 1000 | – |
| Cc1cnc2[nH]cc(Cc3cnc(Nc4cc(OC(C)C)n[nH]4)nc3)c2c1 [Compound P-3038, (5-Isopropoxy-2H-pyrazol-3-yl)-[5-(5-methyl-1H-pyrrolo[2,3-b]pyridin-3-ylmethyl)-pyrimidin-2-yl]-amine] | < 1000 | – |
| CCOc1ccc(Nc2ccc(Cc3c[nH]c4ncc(C)cc34)c(F)n2)cn1 [Compound P-3039, (6-ethoxy-pyridin-3-yl)-[6-fluoro-5-(5-methyl-1H-pyrrolo[2,3-b]pyridin-3-ylmethyl)-pyridin-2-yl]-amine] | < 100 | < 100 |
| CCc1ccc(Nc2ccc(Cc3c[nH]c4ncc(C)cc34)c(F)n2)cn1 [Compound P-3048, (6-Ethyl-pyridin-3-yl)-[6-fluoro-5-(5-methyl-1H-pyrrolo[2,3-b]pyridin-3-ylmethyl)-pyridin-2-yl]-amine] | – | < 10 |
| CCc1ccc(Nc2ccc(C(=O)c3c[nH]c4ncc(C)cc34)c(F)n2)cn1 [Compound P-3049, [6-(6-Ethyl-pyridin-3-ylamino)-2-fluoro-pyridin-3-yl]-(5-methyl-1H-pyrrolo[2,3-b]pyridin-3-yl)-methanone] | – | < 10 |
| Cc1cnc2[nH]cc(Cc3ccc(Nc4ccc(C5CC5)nc4)nc3F)c2c1 [Compound P-3050, (6-Cyclopropyl-pyridin-3-yl)-[6-fluoro-5-(5-methyl-1H-pyrrolo[2,3-b]pyridin-3-ylmethyl)-pyridin-2-yl]-amine] | – | < 100 |
| Cc1cnc2[nH]cc(C(=O)c3ccc(Nc4ccc(C5CC5)nc4)nc3F)c2c1 [Compound P-3051, [6-(6-Cyclopropyl-pyridin-3-ylamino)-2-fluoro-pyridin-3-yl]-(5-methyl-1H-pyrrolo[2,3-b]pyridin-3-yl)-methanone] | – | < 10 |
| CCn1cc(Nc2ccc(C(=O)c3c[nH]c4ncnc(C5CC5)c34)c(F)n2)cn1 [Compound P-4037, (4-Cyclopropyl-7H-pyrrolo[2,3-d]pyrimidin-5-yl)-[6-(1-ethyl-1H-pyrazol-4-ylamino)-2-fluoro-pyridin-3-yl]-methanone] | – | < 100 |
